Results on 17 compounds are retold here after the NIST ThermoML archive (doi:10.1021/je0256028).

Numbers after ± are expanded uncertainties.

The conditions of series [1]: 298.15 K; for mass density: 101.33 kPa, Vibrating tube method; for surface tension liquid-gas: Pendant drop shape.
Series [2] is described as follows: xn = mol fraction of the nth substance listed. The following applies: 298.15 K, Pendant drop shape.

In the case of `Cc1ccccc1C` [1,2-dimethylbenzene], in series [1] (Liquid), the mass density is listed as 875.92 ± 0.11 kg/m3 and the surface tension liquid-gas was 29.6 ± 0.4 mN/m.
As for `Cc1ccccc1C` [1,2-dimethylbenzene] + CC(C)(C)O, the surface tension liquid-gas in series [2] (x2 = 0) stood at 29.6 ± 0.4 mN/m; in series [2] (x2 = 0.1083), 27.8 ± 0.38 mN/m; in series [2] (x2 = 0.1992) it was 26.43 ± 0.36 mN/m; in series [2] (x2 = 0.3042), 25.27 ± 0.35 mN/m; in series [2] (x2 = 0.402) it was 24.32 ± 0.34 mN/m; in series [2] (x2 = 0.5007) it was 23.6 ± 0.34 mN/m. The surface tension liquid-gas in series [2] (x2 = 0.5988) was 22.82 ± 0.33 mN/m; in series [2] (x2 = 0.6992), 22.05 ± 0.32 mN/m; in series [2] (x2 = 0.8), 21.38 ± 0.31 mN/m; in series [2] (x2 = 0.8991), 20.71 ± 0.31 mN/m.
For the compound `Cc1ccccc1C` [1,2-dimethylbenzene] + CC(C)O, the surface tension liquid-gas was found to be 29.6 ± 0.4 mN/m in series [2] (x2 = 0); 28.21 ± 0.38 mN/m in series [2] (x2 = 0.0992); 27.11 ± 0.37 mN/m in series [2] (x2 = 0.1988); 26.07 ± 0.36 mN/m in series [2] (x2 = 0.3024); 25.3 ± 0.35 mN/m in series [2] (x2 = 0.4004); 24.54 ± 0.35 mN/m in series [2] (x2 = 0.4979). Moreover, the surface tension liquid-gas in series [2] (x2 = 0.5971) is listed as 23.98 ± 0.34 mN/m; in series [2] (x2 = 0.6988), 23.15 ± 0.33 mN/m; in series [2] (x2 = 0.8) it was 22.4 ± 0.32 mN/m; in series [2] (x2 = 0.8896), 21.72 ± 0.32 mN/m.
`Cc1cccc(C)c1` [1,3-dimethylbenzene]: in series [1] (Liquid), the mass density is 859.79 ± 0.16 kg/m3 and the surface tension liquid-gas was 28.36 ± 0.39 mN/m.
For the compound `Cc1cccc(C)c1` [1,3-dimethylbenzene] + CC(C)(C)O, the surface tension liquid-gas in series [2] (x2 = 0) is 28.36 ± 0.39 mN/m; in series [2] (x2 = 0.1028) it was 26.83 ± 0.37 mN/m; in series [2] (x2 = 0.201) it was 25.76 ± 0.36 mN/m; in series [2] (x2 = 0.3006) it was 24.84 ± 0.35 mN/m; in series [2] (x2 = 0.4009) it was 23.98 ± 0.34 mN/m; in series [2] (x2 = 0.4999) it was 23.21 ± 0.33 mN/m. In addition, the surface tension liquid-gas in series [2] (x2 = 0.5994) was 22.52 ± 0.33 mN/m; in series [2] (x2 = 0.6984), 21.84 ± 0.32 mN/m; in series [2] (x2 = 0.7981), 21.22 ± 0.31 mN/m; in series [2] (x2 = 0.895), 20.64 ± 0.31 mN/m.
For `Cc1cccc(C)c1` [1,3-dimethylbenzene] + CC(C)O, the surface tension liquid-gas in series [2] (x2 = 0) is reported as 28.36 ± 0.39 mN/m; in series [2] (x2 = 0.1019) it was 27.15 ± 0.38 mN/m; in series [2] (x2 = 0.1933), 26.23 ± 0.37 mN/m; in series [2] (x2 = 0.2999) it was 25.4 ± 0.36 mN/m; in series [2] (x2 = 0.4024), 24.76 ± 0.35 mN/m; in series [2] (x2 = 0.4983), 24.18 ± 0.34 mN/m. The surface tension liquid-gas in series [2] (x2 = 0.5957) worked out at 23.56 ± 0.34 mN/m; in series [2] (x2 = 0.7013), 22.87 ± 0.33 mN/m; in series [2] (x2 = 0.7952), 22.26 ± 0.32 mN/m; in series [2] (x2 = 0.8987), 21.58 ± 0.32 mN/m.
For the compound `Cc1ccc(C)cc1` [1,4-dimethylbenzene], in series [1] (Liquid), the mass density stood at 856.85 ± 0.12 kg/m3 and the surface tension liquid-gas amounted to 27.89 ± 0.38 mN/m.
As to `Cc1ccc(C)cc1` [1,4-dimethylbenzene] + CC(C)(C)O, the surface tension liquid-gas in series [2] (x2 = 0) was 27.89 ± 0.38 mN/m; in series [2] (x2 = 0.1004) it was 26.69 ± 0.37 mN/m; in series [2] (x2 = 0.2113), 25.63 ± 0.36 mN/m; in series [2] (x2 = 0.3049), 24.73 ± 0.35 mN/m; in series [2] (x2 = 0.4065) it was 23.9 ± 0.34 mN/m; in series [2] (x2 = 0.498) it was 23.25 ± 0.33 mN/m. For the same compound, the surface tension liquid-gas is on record as 22.5 ± 0.33 mN/m in series [2] (x2 = 0.6012), 21.82 ± 0.32 mN/m in series [2] (x2 = 0.698), 21.15 ± 0.31 mN/m in series [2] (x2 = 0.8007) and 20.58 ± 0.31 mN/m in series [2] (x2 = 0.9002).
With `Cc1ccc(C)cc1` [1,4-dimethylbenzene] + CC(C)O, the surface tension liquid-gas in series [2] (x2 = 0) is 27.89 ± 0.38 mN/m; in series [2] (x2 = 0.1029), 26.82 ± 0.37 mN/m; in series [2] (x2 = 0.2014), 26.03 ± 0.36 mN/m; in series [2] (x2 = 0.2993), 25.32 ± 0.35 mN/m; in series [2] (x2 = 0.403) it was 24.63 ± 0.35 mN/m; in series [2] (x2 = 0.4979), 24.06 ± 0.34 mN/m. For the same compound, the surface tension liquid-gas in series [2] (x2 = 0.5985) is 23.45 ± 0.33 mN/m; in series [2] (x2 = 0.6991), 22.86 ± 0.33 mN/m; in series [2] (x2 = 0.7982) it was 22.22 ± 0.32 mN/m; in series [2] (x2 = 0.9047), 21.52 ± 0.32 mN/m.
For the compound `CC(C)(C)O` [2-methylpropan-2-ol], in series [1] (Liquid), the mass density amounted to 780.27 ± 0.16 kg/m3. For the same compound, the surface tension liquid-gas in series [1] (Metastable liquid) amounted to 19.97 ± 0.3 mN/m.
Regarding `CC(C)(C)O` [2-methylpropan-2-ol] + Cc1ccc(C)cc1, the surface tension liquid-gas in series [2] (x1 = 1) was found to be 19.97 ± 0.3 mN/m.
On the same count and under the same terms, under `CC(C)(C)O` [2-methylpropan-2-ol] + Cc1cccc(C)c1 stands 19.97 ± 0.3 mN/m; under `CC(C)(C)O` [2-methylpropan-2-ol] + Cc1ccccc1C, 19.97 ± 0.3 mN/m.
Turning to `CC(C)O` [propan-2-ol], in series [1] (Liquid), the mass density amounted to 780.85 ± 0.16 kg/m3 and the surface tension liquid-gas came to 20.93 ± 0.31 mN/m.
As to `CC(C)O` [propan-2-ol] + Cc1ccc(C)cc1, in series [2] (x1 = 1), the surface tension liquid-gas is 20.93 ± 0.31 mN/m.
On the same count and under the same terms, in the case of `CC(C)O` [propan-2-ol] + Cc1cccc(C)c1 it was 20.93 ± 0.31 mN/m; in that of `CC(C)O` [propan-2-ol] + Cc1ccccc1C, 20.93 ± 0.31 mN/m.
